Experimental data reported in article PMC8128909, “Characterization of a new bifunctional endo-1,4-β-xylanase/esterase found in the rumen metagenome” (Scientific Reports, 2021).

Test system: T1, XylR
T1 construct: without predicted 21-residue signal peptide; His6 (C-terminal as printed), pET28a(+), E. coli BL21(DE3); 75 kDa on SDS-PAGE; motifs 159WDVVNEA163, 280TELD283, 624GLSMG628
Assay: spectrophotometric p-nitrophenol release at […] nm, Michaelis-Menten fit
Type: biochemical, uncultured bacterium (Nelore cattle rumen metagenome)
Settings: 0.1 M sodium acetate pH 6.5, 37 °C; substrate 0.75 to 5 mM; esterase activity

Q: `CC(=O)Oc1ccc([N+](=O)[O-])cc1` [C2, p-nitrofenyl acetate] was tested. Which Km did it give?
A: Its Km is 2300 ± 400 µM.
